Reference: article PMC10035951, “Selenium-analogs based on natural sources as cancer-associated carbonic anhydrase isoforms IX and XII inhibitors” (Journal of Enzyme Inhibition and Medicinal Chemistry, 2023)
Where two headings read alike, the source gives them in different places.

Columns and labels:
hCA II = target: T1, hCA II (Homo sapiens, UniProt P00918); assay: CA catalysed CO2 hydration, stopped-flow inhibition; type: biochemical
T1 construct: made in house
Experimental: (§1) The uncatalyzed rates were determined in the same manner and subtracted from the total observed rates. Stock solutions of inhibitor (0.1 mM) were prepared in distilled − deionized water and dilutions up to 0.01 nM were done thereafter with the assay buffer. Inhibitor and enzyme solutions were preincubated together for 15 min at room temperature before assay to allow for the formation of the E − I complex. The inhibition constants were obtained by nonlinear least-squares methods using PRISM 3 and the Cheng − Prusoff equation, as reported earlier,[39]^,[40] and represent the mean from at least three different determinations. […] All human CA (hCA) isoforms were recombinant ones obtained in-house as reported earlier.[41]^,[42]

hCA IX = target: T2, hCA IX (Homo sapiens, UniProt Q16790); assay: as above; type: biochemical; conditions: for Ki: recombinant hCA IX, stopped-flow CO2 hydration, 15 min preincubation
T2 construct: made in house
Experimental: as §1

hCA I = target: T3, hCA I (Homo sapiens, UniProt P00915); assay: as above; type: biochemical
T3 construct: made in house
Experimental: as §1

hCA XII = target: T4, hCA XII (Homo sapiens, UniProt O43570); assay: as above; type: biochemical
T4 construct: made in house
Experimental: An Applied Photophysics stopped-flow instrument has been used for assaying the CA catalysed CO2 hydration activity.[38] Phenol red (at a concentration of 0.2 mM) has been used as an indicator, working at the absorbance maximum of 557 nm, with 20 mM Hepes (pH 7.5) as a buffer and 20 mM Na2SO4 (for maintaining constant the ionic strength), following the initial rates of the CA-catalysed CO2 hydration reaction for a period of 10–100 s. The CO2 concentrations ranged from 1.7 to 17 mM for the determination of the kinetic parameters and inhibition constants. […]. The uncatalyzed rates were determined in the same manner and subtracted from the total observed rates. Stock solutions of inhibitor (0.1 mM) were prepared in distilled − deionized water and dilutions up to 0.01 nM were done thereafter with the assay buffer. Inhibitor and enzyme solutions were preincubated together for 15 min at room temperature before assay to allow for the formation of the E − I complex. The inhibition constants were obtained by nonlinear least-squares methods using PRISM 3 and the Cheng − Prusoff equation, as reported earlier,[39]^,[40] and represent the mean from at least three different determinations. The enzyme concentrations were in the range 3–11 nM. All human CA (hCA) isoforms were recombinant ones obtained in-house as reported earlier.[41]^,[42]

[1] = tested on: hCA isoforms I, II, VA, IX, and XII; assay: CA inhibition, summary statements over all tested isoforms; type: biochemical, human; conditions: for isoform selectivity (in words): from the Ki values of Table 1; for Ki: all CA isoforms tested for series b, read-out: Ki range over all CA isoforms
Experimental: An Applied Photophysics stopped-flow instrument has been used for assaying the CA catalysed CO2 hydration activity.[38] Phenol red (at a concentration of 0.2 mM) has been used as an indicator, working at the absorbance maximum of 557 nm, with 20 mM Hepes (pH 7.5) as a buffer and 20 mM Na2SO4 (for maintaining constant the ionic strength), following the initial rates of the CA-catalysed CO2 hydration reaction for a period of 10–100 s. The CO2 concentrations ranged from 1.7 to 17 mM for the determination of the kinetic parameters and inhibition constants. For each inhibitor, at least six traces of the initial 5 − 10% of the reaction have been used for determining the initial velocity. The uncatalyzed rates were determined in the same manner and subtracted from the total observed rates. Stock solutions of inhibitor (0.1 mM) were prepared in distilled − deionized water and dilutions up to 0.01 nM were done thereafter with the assay buffer. Inhibitor and enzyme solutions were preincubated together for 15 min at room temperature before assay to allow for the formation of the E − I complex. The inhibition constants were obtained by nonlinear least-squares methods using PRISM 3 and the Cheng − Prusoff equation, as reported earlier,[39]^,[40] and represent the mean from at least three different determinations. The enzyme concentrations were in the range 3–11 nM. All human CA (hCA) isoforms were recombinant ones obtained in-house as reported earlier.[41]^,[42]

[2] = recombinant hCA II, stopped-flow CO2 hydration, 15 min preincubation, read-out: Ki hCA II
[3] = recombinant hCA I, stopped-flow CO2 hydration, 15 min preincubation, read-out: Ki hCA I
[4] = recombinant hCA XII, stopped-flow CO2 hydration, 15 min preincubation, read-out: Ki hCA XII

T3 sequence (P00915 whole entry): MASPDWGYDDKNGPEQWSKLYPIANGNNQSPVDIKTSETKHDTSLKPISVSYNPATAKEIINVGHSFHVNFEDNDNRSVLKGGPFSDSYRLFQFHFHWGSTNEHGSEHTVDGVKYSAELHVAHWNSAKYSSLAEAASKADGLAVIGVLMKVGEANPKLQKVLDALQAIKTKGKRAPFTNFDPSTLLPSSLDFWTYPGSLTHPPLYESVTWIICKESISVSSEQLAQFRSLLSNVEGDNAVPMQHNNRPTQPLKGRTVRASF
T4 sequence (O43570 25-354): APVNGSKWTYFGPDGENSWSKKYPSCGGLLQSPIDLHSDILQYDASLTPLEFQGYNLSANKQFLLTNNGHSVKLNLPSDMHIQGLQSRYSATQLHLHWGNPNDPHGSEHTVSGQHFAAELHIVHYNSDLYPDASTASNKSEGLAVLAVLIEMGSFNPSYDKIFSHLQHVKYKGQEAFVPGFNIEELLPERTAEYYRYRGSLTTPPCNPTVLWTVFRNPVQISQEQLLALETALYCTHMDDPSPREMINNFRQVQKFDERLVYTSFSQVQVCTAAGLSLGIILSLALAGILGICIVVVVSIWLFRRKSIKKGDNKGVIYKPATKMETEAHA

SMILES	Ki (hCA II; [2]) [µM]	Ki (hCA IX) [µM]	Ki (hCA I; [3]) [µM]	Ki (hCA XII; [4]) [µM]	other results
C=CC[Se]C(=O)C12CC3CC(CC(C3)C1)C2 [Compound 1a]	> 100	> 100	> 100	–	–
C#CC[Se]C(=O)C12CC3CC(CC(C3)C1)C2 [Compound 1b]	> 100	9.1	> 100	28.4	isoform selectivity (in words) [1]: selectivity for tumour-associated isoforms IX and XII
C=CC[Se]C(=O)c1ccccc1 [Compound 2a]	> 100	> 100	> 100	–	–
C#CC[Se]C(=O)c1ccccc1 [Compound 2b]	> 100	7.8	80.5	55.7	times higher inhibition of CA IX than of isoform I (hCA IX; CA IX versus CA I): ~13 times; times higher inhibition of CA IX than of isoform II (hCA IX; CA IX versus CA II): ~10 times
C=CC[Se]C(=O)c1ccccc1Cl [Compound 3a]	> 100	> 100	> 100	–	–
C#CC[Se]C(=O)c1ccccc1Cl [Compound 3b]	–	41.6	–	–	Ki (hCA XII): 28.8 µM; Ki (hCA II): > 100 µM; Ki (hCA I): 42.1 µM
C#CC[Se]C(=O)c1ccc2c(c1)OCO2 [Compound 4b]	53.5	67.7	31.3	> 100	–
C=CC[Se]C(=O)C=Cc1ccccc1 [Compound 5a]	> 100	> 100	> 100	–	–
C#CC[Se]C(=O)C=Cc1ccccc1 [Compound 5b]	42.7	79.3	24.1	> 100	–
C#CC[Se]C(=O)CCc1ccccc1 [Compound 6b]	–	25	–	–	Ki (hCA XII): 7 µM; Ki [1]: 2.2 to 48.5 µM; Ki (hCA II): 9.5 µM; Ki (hCA I): 3.1 µM; times more potent than analog without the spacer (2b) (hCA I; CA I, Ki ratio versus 2b): 26 times; times more potent than analog with the double-bond spacer (5b) (hCA I; CA I, Ki ratio versus 5b): 7.7 times
C=CC[Se]C(=O)c1cccnc1 [Compound 7a]	> 100	> 100	> 100	–	–
C#CC[Se]C(=O)c1cccnc1 [Compound 7b]	66.3	38.2	30.2	85.1	–
C=CC[Se]C(=O)c1cccnc1Cl [Compound 8a]	> 100	89.4	> 100	–	–
C#CC[Se]C(=O)c1cccnc1Cl [Compound 8b]	8.6	48.5	2.2	9.6	Ki [1]: 2.2 to 48.5 µM; increase of inhibitory activity compared to unsubstituted pyridine (hCA I; CA I, Ki ratio versus 7b): 13.7 times
C=CC[Se]C(=O)c1cccs1 [Compound 9a]	> 100	> 100	> 100	–	–
C#CC[Se]C(=O)c1cccs1 [Compound 9b]	46.6	> 100	9.2	97	–

SMILES	Ki (hCA II; [2]) [µM]	Ki (hCA IX) [µM]	Ki (hCA I; [3]) [µM]	Ki (hCA XII; [4]) [µM]	other results
C=CC[Se]C(=O)c1sccc1Cl [Compound 10a]	> 100	> 100	> 100	–	–
C#CC[Se]C(=O)c1sccc1Cl [Compound 10b]	88.5	> 100	> 100	98.5	–
C=CC[Se]C(=O)c1ccco1 [Compound 11a]	> 100	> 100	> 100	–	–
C#CC[Se]C(=O)c1ccco1 [Compound 11b]	49.9	7.1	8.5	59.6	–
C=CC[Se]C(=O)c1ccno1 [Compound 12a]	> 100	> 100	> 100	–	–
C#CC[Se]C(=O)c1ccno1 [Compound 12b]	> 100	22.4	58.4	66.6	decrease of inhibitory capacity on substitution of furan ring (11b) by isoxazole (hCA I; CA I, Ki ratio versus 11b): ~7 fold
C=CC[Se]C(=O)c1ccccc1O [Compound 13a]	> 100	> 100	> 100	–	–
C#CC[Se]C(=O)c1ccccc1O [Compound 13b]	> 100	54.8	23.3	> 100	isoform selectivity (in words) [1]: selectivity for cytosolic CA I isoform and tumour-associated CA IX
C=CC[Se]C(=O)c1ccccc1OC(C)=O [Compound 14a]	> 100	> 100	> 100	–	–
C#CC[Se]C(=O)c1ccccc1OC(C)=O [Compound 14b]	55.3	> 100	5	89.7	–
C#CC[Se]C(=O)C(C)c1ccc(CC(C)C)cc1 (stereo not shown) [Compound 15b]	> 100	47.7	77.1	> 100	isoform selectivity (in words) [1]: selectivity for cytosolic CA I isoform and tumour-associated CA IX
C=CC[Se]C(=O)[C@@H](C)c1ccc2cc(OC)ccc2c1 [Compound 16a]	> 100	> 100	> 100	–	–
C#CC[Se]C(=O)[C@@H](C)c1ccc2cc(OC)ccc2c1 [Compound 16b]	> 100	24.7	91.5	> 100	isoform selectivity (in words) [1]: selectivity for cytosolic CA I isoform and tumour-associated CA IX
C#CC[Se]C(=O)Cc1c(C)n(C(=O)c2ccc(Cl)cc2)c2ccc(OC)cc12 [Compound 17b]	> 100	58.5	> 100	> 100	isoform selectivity (in words) [1]: selectivity for tumour-associated isoform IX
C#CC[Se]C(=O)c1ccccc1Nc1cccc(C)c1C [Compound 18b]	4.5	9.6	> 100	46.3	fold greater inhibition potency for CA II than for CA I (hCA II; CA II versus CA I): 22 fold
C#CC[Se]C(=O)c1ccccc1Nc1cccc(C(F)(F)F)c1 [Compound 19b]	> 100	9.5	> 100	> 100	isoform selectivity (in words) [1]: selectivity for tumour-associated isoform IX
